Test results from patent publication US10238670B2, “9-aminomethyl minocycline compounds and methods of use thereof in urinary tract infection (UTI) treatment” (Paratek Pharmaceuticals, Inc., priority 2016, dated 2019).
Like-named read-outs stand apart in the source and are kept apart here.

What was measured:
[1] = In vitro plasma protein binding (ultrafiltration), monkey plasma; assay type: in vitro ADME, monkey (Cynomolgus); settings: 10-10,000 ng/mL, mean±SD, read-out: mean unbound protein fraction (fu) in plasma
Description: (§1) For human binding studies, plasma was obtained from the blood of three healthy male volunteers. Plasma was defrosted from storage at -20° C. before use, and pools of human plasma were used for all studies. Plasma from mouse, rat, and monkey was supplied by Harlan Laboratories Ltd. (Netherlands), Milan […], Switzerland) and Centre de Primatologie ULP (France), respectively. Protein binding was measured using an ultrafiltration method. To asses the suitability of ultrafiltration, the recovery and free permeation of [^14C]-labelled Compound 1 in PBS buffer were investigated. […] Three 1 mL aliquots per concentration were introduced into […]® devices and spun for 1 min at 2000 g (filtrate ≤500 μL). Samples of the spiked solutions, the filtrate and retentate were quantified by LSC; volumes were determined by weighing. The free permeation of the test compound in PBS was evaluated as follows: Ratio=[Cuf/Cr] with Cuf being the concentration in the ultrafiltrate (ng/mL) and Cr the concentration in the retentate (ng/mL). […] Specifically, concentrations of Compound 1 was determined by an UPLC-MS/MS method. […] Standards and quality control samples were prepared on the day of analysis by adding a 20 μL aliquot of an appropriate standard or QC spiking solution in methanol. A 25 μL aliquot of the internal standard (at 200 ng/mL in methanol) was added to each well except blanks. […] Samples were processed using protein precipitation. A 0.5 mL aliquot of an acetonitrile/ethanol/acetic acid mixture (90:10:0.1, v:v:v) was added to each sample; samples were mixed using a vortex mixer for 10 minutes, and centrifuged 3800 rpm (approximately 2500×g) for 10 min at 10° C. […] The ions monitored for Compound 1 was the parent [M+H]^+ ion at m/z 557.3.0; the product ions at m/z 453.4. […] The quantification was performed using Analyst software and Watson LIMS version 7.2.0.01. Concentrations in QC and study samples were calculated from the resulting peak area ratios and interpolation from the regression equations of the respective calibration curves. The lower limit of quantitation was 5.0 ng/mL for Compound 1.

plasma proteins = experiment: as above; assay type: in vitro ADME, monkey (Cynomolgus); settings: 10-10,000 ng/mL
Description: as §1

Ind+ Proteus spp = experiment: In vitro MIC, 2010 surveillance isolates; assay type: cell-based; settings: N=258
[2] = tested on: human transporters and cytochrome P-450; settings: cited from earlier work
[3] = 14C-labeled Compound 1 single oral 300 mg dose, plasma and urine; assay type: in vivo, human; settings: for AUC(0-inf): 300 mg
Description: ^14C-labeled Compound 1 was administered as a single oral 300 mg dose to healthy human subjects. […] The concentrations of Compound 1 in urine are shown in Table 2 and indicate that urine concentrations exceed the plasma concentrations throughout the dosing interval. The AUC0-24 in urine was 186.1 μg*hr/ml.
While the driver of efficacy for Compound 1 in UTI is not completely known, and while not wishing to be bound by any particular theory, Applicant believes that maximizing time of urine concentration above pathogen MIC (ideally, throughout the dosing interval) is desirable. This belief is partly based on a clinical study that evaluated the disposition of a single 300 mg oral dose of ^14C-Compound 1. In this study, plasma concentrations were consistent with previous oral dosing studies (area under the concentration-time curve from 0 to infinity [AUC0-inf] 9.4 μg·h/mL), and it was determined that approximately 40% of the absorbed dose was eliminated in the urine. Urine concentrations of Compound 1 were not measured directly but estimated concentrations (based on portion of excreted radioactivity) exceeded plasma concentrations and averaged between 7.6 and 11.2 μg/mL over the 24 hours following dosing. These urine concentrations would exceed the MIC90 for ESBL-producing E. coli (4 μg/mL) by approximately 2-fold. It is also known from Applicant's clinical studies that exposure to Compound 1 based on plasma concentrations is approximately 50% higher at steady-state than after a single dose.

Phase 1 studies, safety = assay type: in vivo, human
Description: In the Phase 1 studies, 536 subjects were exposed to Compound 1 IV or oral formulations. Single IV doses up to 600 mg and single oral doses up to 600 mg have been investigated. Multiple IV doses of 100 mg once daily and 200 mg once daily for up to 14 and 7 consecutive days, respectively, have been investigated.

[4] = Pharmacokinetics of Compound 1 in mouse plasma versus kidney; assay type: in vivo
K. pneumoniae FQR = experiment: In vitro MIC, 2010 surveillance isolates; assay type: cell-based, Klebsiella pneumoniae; settings: N=412
[5] = Phase 1 studies, plasma pharmacokinetics (IV and oral)

## CN(C)c1cc(CNCC(C)(C)C)c(O)c2c1C[C@H]1C[C@H]3[C@H](N(C)C)C(O)=C(C(N)=O)C(=O)[C@@]3(O)C(O)=C1C2=O [Compound 1, 9-[(2,2-dimethyl-propylamino)-methyl]-minocycline]
[1]
  fraction unbound: 0.788 ± 0.0726
Plasma proteins
  Mean (SD) Bound Fraction: 21.2 (7.26) %
Plasma proteins; mean±SD
  mean unbound protein fraction (fu) in plasma: 78.8±7.3%
Ind+ Proteus spp; MIC 1 μg/ml
  Cumulative % Inhibition at MIC: 0.8%
Ind+ Proteus spp; MIC 2 μg/ml
  Cumulative % Inhibition at MIC: 3.1%
Ind+ Proteus spp; MIC 4 μg/ml
  Cumulative % Inhibition at MIC: 26.0%
Ind+ Proteus spp; MIC 8 μg/ml
  Cumulative % Inhibition at MIC: 58.1%
Ind+ Proteus spp; MIC 16 μg/ml
  Cumulative % Inhibition at MIC: 73.3%
Ind+ Proteus spp; MIC ≤0.5 μg/ml
  Cumulative % Inhibition at MIC: 0%
Ind+ Proteus spp; MIC ≥32 μg/ml
  Cumulative % Inhibition at MIC: 100%
[2]
  potential for drug-drug interactions: low potential for drug-drug interactions
[3]; human, in vivo, po
  absorbed dose eliminated in the urine: approximately 40%
  estimated concentrations in urine, average over 24 hours: 7.6 and 11.2
  urine concentration relative to 4 μg/mL (MIC90 for ESBL-producing E. coli): approximately 2 fold
[3]; human, in vivo, po, plasma AUC0-inf
  AUC(0-inf): 9400 ng·h/mL
[3]; human, in vivo, po, plasma AUCinf
  AUC(0-inf): 9420 ng·h/mL
[3]; single oral 300 mg dose, healthy subjects
  plasma Cmax: 563 ng/mL
Phase 1 studies, safety; all Phase 1 studies, subjects who received multiple doses
  discontinuations due to drug-related adverse events: no discontinuations due to drug-related adverse events
Phase 1 studies, safety; multiple p.o. doses of 200 mg and 300 mg once daily for up to 10 consecutive days
  serious adverse events: without any serious adverse events
[4]; kidney/plasma, sc, Subcutaneous, 4.0 mg/kg, read-out: AUC Ratio Kidney:Plasma
  Kp: 4.2
[4]; plasma, sc, Subcutaneous, 4.0 mg/kg
  AUC(0-inf): 2820 ng·h/mL
[4]; tissues including kidney, relative to plasma, subcutaneous, 4 mg/kg, species not printed at b200, read-out: concentrations in tissues including the kidneys relative to plasma
  Kp: ~4
K. pneumoniae FQR; MIC 1 μg/ml
  Cumulative % Inhibition at MIC: 15.3%
K. pneumoniae FQR; MIC 2 μg/ml
  Cumulative % Inhibition at MIC: 48.8%
K. pneumoniae FQR; MIC 4 μg/ml
  Cumulative % Inhibition at MIC: 72.6%
K. pneumoniae FQR; MIC 8 μg/ml
  Cumulative % Inhibition at MIC: 86.7%
K. pneumoniae FQR; MIC 16 μg/ml
  Cumulative % Inhibition at MIC: 92.7%
K. pneumoniae FQR; MIC ≤0.5 μg/ml, listed as head image P00012
  Cumulative % Inhibition at MIC: 1.2%
K. pneumoniae FQR; MIC ≥32 μg/ml
  Cumulative % Inhibition at MIC: 100%
[5]; 300 mg dose of tablet
  bioequivalence of tablet and IV dose: bioequivalent to a 100 mg IV dose
[5]; human, in vivo
  half-life: ~18 h
[5]; human, in vivo, iv, 100 mg
  Cmax: ~1800 ng/mL
[5]; steady state vs single dose
  exposure based on plasma concentrations, higher at steady-state than after a single dose: approximately 50%
  steady state AUC (IV and oral) and Cmax (oral) relative to single IV or oral dose: approximately 1.5 ×
